These are literature values, as cited in patent US20230355730A1, “METHODS FOR TREATING AUTOIMMUNE DISEASE USING BIOCOMPATIBLE BIOABSORBABLE NANOSPHERES” (UTI Limited Partnership, priority 2010, published 2023).

The test system of this data set is IGRP206-214-reactive CD8^+ T-cells. Conditions: cited from earlier work; for T1D protection: chronic treatment, moderate doses (NRP-A7), high doses (NRP-I4, NRP-V7, IGRP206-214).

With KYNKANVFL (SEQ ID NO:8) [NRP-V7], the T1D protection result is listed as “only afforded marginal protection”.

For the sequence KYNIANVFL (SEQ ID NO:7) [NRP-I4], the T1D protection entry is “afforded T1D protection”.

With “VYLKTNVFL (SEQ ID NO:4) [IGRP206-214, natural ligand]”, the T1D protection result was “only afforded marginal protection”.

On to KYNKANAFL (SEQ ID NO:6) [NRP-A7], for which the T1D protection entry is reported as “afforded T1D protection”. The “avidity maturation of the IGRP206-214-reactive CD8^+ subset” value (pre-diabetic NOD mice, soluble peptide) is “blunted avidity maturation”.
